Measurements reported in paper PMC4472782, “Antibacterial Characterization of Novel Synthetic Thiazole Compounds against Methicillin-Resistant Staphylococcus pseudintermedius” (PLoS ONE, 2015).
Converted amounts (≈) assume the structure as drawn. Where a name gives a salt, the structure may show the parent alone. Read-outs that look alike come from different tables or passages of the source.

Legend:
MRSP SP3 [1] = experiment: Cell membrane disruption (260/280 nm cell leakage) analysis; format: cell-based, Staphylococcus pseudintermedius; settings: for absorbance (260 and 280 nm leakage) compared with untreated cells, statistical result: MRSP SP3, 30 minutes, one-way ANOVA, Tukey, P ≤ 0.05
Description: In order to investigate the antimicrobial effect of the thiazole compounds on the integrity of the bacterial cell membrane, the release of 260 and 280 nm absorbing components was determined spectrophotometrically. […] Untreated MRSP SP3 cells or cells treated with vancomycin (inhibits cell wall synthesis in bacterial cells) served as negative controls. For the release of 260 and 280 nm absorbing material, the bacterial suspension (control) was treated with lysostaphin (in 50 mM Tris-HCl, pH 8.00) for 30 minutes. Lysostaphin was used as a positive control due to its mode of action being the disruption of the cross-linking of the pentaglycin bridges in the cell wall of staphylococci bacteria. The absorbance of cell supernatant at 260 and 280 nm was determined using a spectrophotometer (Jenway 6305). The average OD260 and OD280 values of duplicates of each treatment option were calculated and expressed as the proportion of average OD260 (or OD280) for each treatment option compared to the average OD260 (or OD280) for the positive control (lysostaphin).
(§1) All statistical analyses were performed with GraphPad Prism 6.0 (GraphPad Software, La Jolla, CA). Data generated from cytotoxicity analysis of the thiazole compounds against J774.A1 cells and the 260 and 280 nm cell leakage analysis were analyzed using one-way ANOVA, with post hoc Tukey's multiple comparisons test (P < 0.05).

[2] = tested on: methicillin-sensitive Staphylococcus pseudintermedius; experiment: MIC by broth microdilution against MSSP clinical isolates; format: cell-based; settings: for MIC50: lowest concentration inhibiting growth in 50% of isolates; for MIC: read-out: MIC Range
Description: (§2) Fifteen isolates of S. pseudintermedius (nine MSSP and six MRSP), identified at the Indiana Animal Disease Diagnostic Laboratory from specimens collected from dogs admitted to the small animal teaching hospital at Purdue University, were included in the study. The specimens were not collected specifically for this research study but were obtained from patients admitted to the hospital for treatment. Clinical specimens were inoculated onto 5% sheep blood agar and incubated at 35°C for 18–24 hours. Standard methods including examination of colony morphology and hemolysis and biochemical tests such as tube coagulase, Voges-Proskauer (VP) and fermentation tests for maltose, trehalose and lactose, were used in addition to matrix-assisted laser desorption ionization time of flight mass spectrometry to identify isolates. Antimicrobial susceptibility was determined by broth microdilution using the SensiTitre (Thermofisher Scientific).
(§3) Bacteria were prepared in phosphate-buffered saline (PBS) until a McFarland standard of 0.5 was achieved. The solution was subsequently diluted 1:300 in Mueller-Hinton broth (MHB) to reach a starting inoculum of 1 × 10^5 colony-forming units (CFU/mL). Bacteria were then transferred to a 96-well microtiter plate. Thiazole compounds and antibiotics were added (in triplicate) to wells in the first row of the microtiter plate and then serially diluted along the vertical axis. […] The MIC was categorized as the concentration where there was no visible growth of bacteria observed.

[3] = tested on: methicillin-resistant Staphylococcus pseudintermedius; experiment: MIC by broth microdilution against MRSP clinical isolates; format: cell-based; settings: for MIC50: Staphylococcus pseudintermedius
Description: as §2, §3

[4] = tested on: methicillin-sensitive Staphylococcus pseudintermedius; experiment: MBC determination against MSSP clinical isolates; format: cell-based; settings: nine MSSP isolates; for MBC: Staphylococcus pseudintermedius, lowest concentration that killed 50% of isolates, read-out: MBC50
Description: (§4) The MBC was determined by plating 5 μL from wells on the 96-well microtiter plate (where the MIC was determined) where no growth was observed onto Tryptic soy agar (TSA) plates. […] The MBC was categorized as the concentration where ≥99% reduction in bacterial cell count was observed.

[5] = tested on: methicillin-resistant Staphylococcus pseudintermedius; experiment: MBC determination against MRSP clinical isolates; format: cell-based; settings: for MBC: Staphylococcus pseudintermedius, read-out: MBC50
Description: as §4

MRSP SP3 [6] = experiment: Time-kill analysis against MRSP; format: cell-based, Staphylococcus pseudintermedius; settings: 4 × MIC; for time required to completely eliminate MRSP: MRSP SP3, 24 hour incubation at 37°C
Description: MRSP SP3 cells in late logarithmic growth phase were diluted to ~1 × 10^6 CFU/mL and exposed to concentrations equivalent to 4 × MIC (in triplicate) of thiazole compounds 1–6 and rifampicin in MHB. Samples (20 μL) were collected after 0, 2, 4, 6, 8, 10, 12, and 24 hours of incubation at 37°C and subsequently serially diluted in PBS. Bacteria were then transferred to TSA plates and incubated at 37°C for 20–24 hours before viable CFU/mL values were determined.

MRSP SP3 [7] = experiment: Post-antibiotic effect against MRSP; format: cell-based, Staphylococcus pseudintermedius; settings: 4 × MIC for one hour
Description: A tube containing untreated bacterial cells served as a control. Afterward, the compound/antibiotic was washed out by diluting bacteria 1:1000 in MHB. Counts of CFU for all cultures were obtained after washing. Aliquots (100 μL) of bacteria were removed every hour (for 10 hours), serially diluted in PBS, and plated on TSA plates. TSA plates were incubated for 20 hours at 37°C before CFU values were determined.

[8] = tested on: murine macrophage cell line (J774.A1); experiment: In vitro cytotoxicity analysis (MTS assay); format: cell-based; settings: 10 μg/mL, J774.A1, two hours
Description: Compounds were assayed at concentrations of 5 μg/mL, 10 μg/mL, 20 μg/mL, and 40 μg/mL against a murine macrophage cell line (J774.A1) (ATCC TIB-67, American Type Culture Collection (ATCC), Manassas, VA, USA) to determine the potential toxic effect in vitro. Cells were cultured in Dulbeco’s modified Eagle’s medium (Sigma-Aldrich, St. Louis, MO, USA) with 10% fetal bovine serum (USA Scientific, Inc.) at 37°C with 5% CO2. Controls received DMSO alone at a concentration equal to that in drug-treated cell samples. The cells were incubated with the compounds in a 96-well plate at 37°C and 5.0% CO2 for two hours prior to addition of the assay reagent MTS 3-(4,5-dimethylthiazol-2-yl)-5-(3-carboxymethoxyphenyl)-2-(4-sulfophenyl)-2H-tetrazolium) (Promega, Madison, WI, USA). Absorbance readings were taken using a kinetic ELISA microplate reader (Molecular Devices, Sunnyvale, CA, USA). The quantity of viable cells after treatment with each compound was expressed as a percentage of the control, DMSO.
as §1

MRSP (SP3) = experiment: Multi-step resistance selection; format: cell-based, Staphylococcus pseudintermedius; settings: for shift in the MIC over ten passages: MRSP SP3, ten serial passages; for MIC: Staphylococcus pseudintermedius
Description: To assess the ability of MRSP to develop resistance to the thiazole compounds, a multi-step resistance selection experiment was performed, as described elsewhere. The broth microdilution method for MIC determination against a clinical isolate of MRSP (SP3) was repeated for ten passages over a period of ten days. The initial inoculum was prepared to a McFarland standard of 0.5. The solution was subsequently diluted 1:300 in MHB to reach a starting inoculum of 1 × 10^5 CFU/mL. For each subsequent passage, the inoculum for the MIC determination was adjusted to a final density of approximately 5 × 10^5 CFU/mL using the contents of a well containing a subinhibitory concentration of the compound (where bacterial growth was observed from the previous passage). Bacteria were then transferred to a new 96-well microtiter plate.

MRSP SP3 [9] = experiment: Checkerboard assay of thiazole compounds with oxacillin; format: cell-based, Staphylococcus pseudintermedius; settings: for relationship with oxacillin: checkerboard assay; for ƩFIC: combination with oxacillin, ≤ 0.5 synergistic, > 0.5 to ≤ 4.0 indifference, > 4 antagonistic
Description: The relationship between the thiazole compounds and oxacillin was assessed via a standard checkerboard assay. Bacteria (MRSP SP3) equivalent to a McFarland standard of 0.5 were prepared in PBS. The bacteria were next diluted in MHB to achieve a starting cell density of 1 × 10^5 CFU/mL. MHB was transferred to all wells of a 96-well microtiter plate. […] Oxacillin was serially diluted along the abscissa of the microtiter plate while the thiazole compound was serially diluted along the ordinate. The plate was incubated for 22–24 hours at 37°C. The MIC of the test compound in combination with oxacillin was determined as the lowest concentration of each compound/antibiotic where no visible growth of bacteria was observed. The fractional inhibitory concentration index (ƩFIC) was calculated for each combination as described previously. A synergistic relationship was classified as an FIC index less than or equal to 0.5. […]

[10] = six MRSP isolates, triplicate, read-out: MIC50

Row | Compound | absorbance (260 and 280 nm leakage) compared with untreated cells, statistical result (MRSP SP3 [1]) | MIC50 ([2]; nine MSSP isolates, triplicate) | MIC ([2]; nine MSSP isolates, triplicate) | MIC50 [3, 10] | MIC Range ([3]; six MRSP isolates, triplicate) | MBC [4] | MBC Range [4] | MBC ([5]; six MRSP isolates) | MBC Range ([5]; six MRSP isolates) | Post-antibiotic Effect (MRSP SP3 [7]) | time required to completely eliminate MRSP (MRSP SP3 [6]) | toxicity to murine macrophage cells (MTS assay) [8] | shift in the MIC over ten passages (MRSP (SP3)) | MIC (MRSP (SP3); read-out: initial MIC) | ƩFIC (MRSP SP3 [9]) | other results
1 | CN[C@H](CC(C)C)C(=O)N[C@H]1C(=O)N[C@@H](CC(N)=O)C(=O)N[C@H]2C(=O)N[C@H]3C(=O)N[C@H](C(=O)N[C@H](C(=O)O)c4cc(O)cc(O)c4-c4cc3ccc4O)[C@H](O)c3ccc(c(Cl)c3)Oc3cc2cc(c3O[C@@H]2O[C@H](CO)[C@@H](O)[C@H](O)[C@H]2O[C@H]2C[C@](C)(N)[C@H](O)[C@H](C)O2)Oc2ccc(cc2Cl)[C@H]1O [vancomycin, vancomycin hydrochloride, reference compound] | no statistical difference |  |  |  |  |  |  |  |  |  |  |  |  |  |  | 
2 | CO[C@H]1/C=C/O[C@@]2(C)Oc3c(C)c(O)c4c(O)c(c(/C=N/N5CCN(C)CC5)c(O)c4c3C2=O)NC(=O)/C(C)=C\C=C\[C@H](C)[C@H](O)[C@@H](C)[C@@H](O)[C@@H](C)[C@H](OC(C)=O)[C@@H]1C [Rifampicin, rifampicin, reference compound] |  | < 0.41 µg/mL | < 0.41 µg/mL | < 0.41 µg/mL | <0.41 µg/mL | < 0.41 µg/mL | <0.41 µg/mL | < 0.41 µg/mL | <0.41 µg/mL | >9 h |  |  |  |  |  | time-kill behaviour (in words) (MRSP SP3 [6]; MRSP SP3): slow bactericidal activity against MRSP SP3 within the first eight hours of the assay before rapid bacterial re-growth; Post-antibiotic Effect (MRSP SP3 [7]; listed as rifampicin): > 9 h
3 | C/C(=N\NC(=N)N)c1sc(-c2ccc(-c3cccc4ccccc34)cc2)nc1C [Compound 6] |  | 0.8 µg/mL (≈ 2 µM) | 0.2 to 1.6 µg/mL (≈ 0.501 to 4 µM) | 0.4 µg/mL (≈ 1 µM) | 0.20 to 1.60 µg/mL | 1.06 µg/mL (≈ 2.65 µM) | 0.20 to 3.19 µg/mL | 0.8 µg/mL (≈ 2 µM) | 0.20 to 1.60 µg/mL | >9 h | within two hours | toxic | four-fold increase | 1.6 µg/mL (≈ 4 µM) | 0.38 | relationship with oxacillin (MRSP SP3 [9]): synergistic
4 | C/C(=N\NC(=N)N)c1sc(-c2ccc(-c3ccc(F)cc3)cc2)nc1C [Compound 4] |  | 0.73 µg/mL (≈ 1.99 µM) | 0.18 to 2.94 µg/mL (≈ 0.49 to 8 µM) |  | 0.37 to 1.47 µg/mL | 1.1 µg/mL (≈ 2.99 µM) | 0.18 to 2.94 µg/mL |  |  | >9 h | 12 h | not toxic | two-fold increase | 1.47 µg/mL (≈ 4 µM) | 0.63 | MIC50 [3]: 1.47 µg/mL (≈ 4 µM); MBC [5]: 1.47 µg/mL (≈ 4 µM)
5 | C/C(=N\NC(=N)N)c1sc(-c2ccc(-c3ccc(C(F)(F)F)cc3)cc2)nc1C [Compound 5] |  | 0.42 µg/mL (≈ 1.01 µM) |  | 0.42 µg/mL (≈ 1.01 µM) | 0.21 to 1.67 µg/mL | 0.42 µg/mL (≈ 1.01 µM) | 0.21 to 6.67 µg/mL | 0.42 µg/mL (≈ 1.01 µM) | 0.21 to 3.34 µg/mL | 8 h | eight hours | not toxic | two-fold increase | 1.67 µg/mL (≈ 4 µM) | 0.38 | MIC [2]: 0.21 to 1.67 µg/mL (≈ 0.503 to 4 µM); MIC (MRSP (SP3); read-out: MIC after the second serial passage (stable until the seventh passage)): 3.34 µg/mL (≈ 8 µM); MIC (MRSP (SP3); read-out: MIC at the seventh passage): 6.68 µg/mL (≈ 16 µM); relationship with oxacillin (MRSP SP3 [9]): synergistic
6 | C/C(=N\NC(=N)N)c1sc(-c2ccc(-c3ccccc3)cc2)nc1C [Compound 2] | no statistical difference | 0.3 µg/mL (≈ 0.858 µM) | 0.15 to 0.61 µg/mL (≈ 0.429 to 1.75 µM) | 0.46 µg/mL (≈ 1.32 µM) | 0.15 to 0.61 µg/mL | 0.61 µg/mL (≈ 1.75 µM) | 0.15 to 2.42 µg/mL | 0.61 µg/mL (≈ 1.75 µM) | 0.30 to 0.81 µg/mL | 8 h | eight hours | toxic |  |  | 0.56 | intracellular content (at 260 nm) released compared to cells treated with lysostaphin (MRSP SP3 [1]; 4 × MIC, 30 minutes, MRSP SP3): Less than 20%
7 | CCC[C@@H]1C[C@@H](C(=O)N[C@@H]([C@H]2O[C@H](SC)[C@H](O)[C@@H](O)[C@H]2O)[C@H](C)Cl)N(C)C1 [Clindamycin, Clindamycin hydrochloride monohydrate, reference compound] |  | 0.48 µg/mL | 0.24 to 61.4 µg/mL | 0.48 µg/mL |  | 0.48 µg/mL |  | 30.7 µg/mL |  | 2 h |  |  |  |  |  | Post-antibiotic Effect (MRSP SP3 [7]; listed as clindamycin): two hours
8 | lysostaphin: positive control; disrupts cross-linking of the pentaglycin bridges in the cell wall of staphylococci [reference compound] | significant difference |  |  |  |  |  |  |  |  |  |  |  |  |  |  | 
